Source: ChEMBL document CHEMBL1782000, “Thiazole-based chalcones as potent antimicrobial agents. Synthesis and biological evaluation” (2011)
Values after ≈ are worked out from the molar mass of the structure shown.

What was measured:
Staphylococcus aureus [1] = experiment: Antibacterial activity against Staphylococcus aureus ATCC 6538 after 24 hrs by microdilution method; assay type: functional; conditions: ATCC 6538, 24 h
Bacillus cereus [2] = experiment: Antibacterial activity against Bacillus cereus clinical isolate after 24 hrs by microdilution method; assay type: functional
Micrococcus flavus [3] = experiment: Antibacterial activity against Micrococcus flavus ATCC 10240 after 24 hrs by microdilution method; assay type: functional; conditions: ATCC 10240, 24 h
Listeria monocytogenes [4] = experiment: Antibacterial activity against Listeria monocytogenes NCTC 7973 after 24 hrs by microdilution method; assay type: functional; conditions: NCTC 7973, 24 h
Pseudomonas aeruginosa [5] = experiment: Antibacterial activity against Pseudomonas aeruginosa ATCC 27853 after 24 hrs by microdilution method; assay type: functional; conditions: ATCC 27853, 24 h
Salmonella typhimurium [6] = experiment: Antibacterial activity against Salmonella Typhimurium ATCC 13311 after 24 hrs by microdilution method; assay type: functional, Salmonella enterica subsp. enterica serovar Typhimurium; conditions: Salmonella enterica, ATCC 13311, 24 h
Escherichia coli [7] = experiment: Antibacterial activity against Escherichia coli ATCC 35210 after 24 hrs by microdilution method; assay type: functional; conditions: ATCC 35210, 24 h
Enterococcus faecalis [8] = experiment: Antibacterial activity against Enterococcus faecalis isolate obtained from human after 24 hrs by microdilution method; assay type: functional
Staphylococcus aureus [9] = experiment: Bactericidal activity against Staphylococcus aureus ATCC 6538 after 24 hrs; assay type: functional; conditions: ATCC 6538, 24 h
Bacillus cereus [10] = experiment: Bactericidal activity against Bacillus cereus clinical isolate after 24 hrs; assay type: functional
Micrococcus flavus [11] = experiment: Bactericidal activity against Micrococcus flavus ATCC 10240 after 24 hrs; assay type: functional; conditions: ATCC 10240, 24 h
Listeria monocytogenes [12] = experiment: Bactericidal activity against Listeria monocytogenes NCTC 7973 after 24 hrs; assay type: functional; conditions: NCTC 7973, 24 h
Pseudomonas aeruginosa [13] = experiment: Bactericidal activity against Pseudomonas aeruginosa ATCC 27853 after 24 hrs; assay type: functional; conditions: ATCC 27853, 24 h
Salmonella typhimurium [14] = experiment: Bactericidal activity against Salmonella Typhimurium ATCC 13311 after 24 hrs; assay type: functional, Salmonella enterica subsp. enterica serovar Typhimurium; conditions: Salmonella enterica, ATCC 13311, 24 h
Escherichia coli [15] = experiment: Bactericidal activity against Escherichia coli ATCC 35210 after 24 hrs; assay type: functional; conditions: ATCC 35210, 24 h
Enterococcus faecalis [16] = experiment: Bactericidal activity against Enterococcus faecalis isolate obtained from human after 24 hrs; assay type: functional
Aspergillus ochraceus [17] = experiment: Antifungal activity against Aspergillus ochraceus ATCC 12066 after 72 hrs by serial dilution method; assay type: functional; conditions: ATCC 12066, 72 h
Aspergillus versicolor [18] = experiment: Antifungal activity against Aspergillus versicolor ATCC 11730 after 72 hrs by serial dilution method; assay type: functional; conditions: ATCC 11730, 72 h
Aspergillus niger [19] = experiment: Antifungal activity against Aspergillus niger ATCC 6275 after 72 hrs by serial dilution method; assay type: functional; conditions: ATCC 6275, 72 h
Aspergillus fumigatus [20] = experiment: Antifungal activity against Aspergillus fumigatus plant isolate after 72 hrs by serial dilution method; assay type: functional
Trichoderma viride [21] = experiment: Antifungal activity against Trichoderma viride IAM 5061 after 72 hrs by serial dilution method; assay type: functional; conditions: IAM 5061, 72 h
Penicillium ochrochloron [22] = experiment: Antifungal activity against Penicillium ochrochloron ATCC 9112 after 72 hrs by serial dilution method; assay type: functional; conditions: ATCC 9112, 72 h
Talaromyces funiculosus [23] = experiment: Antifungal activity against Penicillium funiculosum ATCC 36839 after 72 hrs by serial dilution method; assay type: functional; conditions: ATCC 36839, 72 h
[24] = Antifungal activity against Fusarium sporotrichioides IMT 496 after 72 hrs by serial dilution method; assay type: functional
Aspergillus ochraceus [25] = experiment: Fungicidal activity against Aspergillus ochraceus ATCC 12066 after 72 hrs; assay type: functional; conditions: ATCC 12066, 72 h
Aspergillus versicolor [26] = experiment: Fungicidal activity against Aspergillus versicolor ATCC 11730 after 72 hrs; assay type: functional; conditions: ATCC 11730, 72 h
Aspergillus niger [27] = experiment: Fungicidal activity against Aspergillus niger ATCC 6275 after 72 hrs; assay type: functional; conditions: ATCC 6275, 72 h
Aspergillus fumigatus [28] = experiment: Fungicidal activity against Aspergillus fumigatus plant isolate after 72 hrs; assay type: functional
Trichoderma viride [29] = experiment: Fungicidal activity against Trichoderma viride IAM 5061 after 72 hrs; assay type: functional; conditions: IAM 5061, 72 h
Penicillium ochrochloron [30] = experiment: Fungicidal activity against Penicillium ochrochloron ATCC 9112 after 72 hrs; assay type: functional; conditions: ATCC 9112, 72 h
Talaromyces funiculosus [31] = experiment: Fungicidal activity against Penicillium funiculosum ATCC 36839 after 72 hrs; assay type: functional; conditions: ATCC 36839, 72 h
[32] = tested on: Fusarium sporotrichioides; experiment: Fungicidal activity against Fusarium sporotrichioides IMT 496 after 72 hrs; assay type: functional; conditions: IMT 496, 72 h
Micrococcus flavus [33] = experiment: Ratio of Ampicillin MIC to compound MIC for Micrococcus flavus ATCC 10240 after 24 hrs; assay type: functional

SMILES	MIC (Staphylococcus aureus [1]) [µM]	MIC (Bacillus cereus [2]) [µM]	MIC (Micrococcus flavus [3]) [µM]	MIC (Listeria monocytogenes [4]) [µM]	MIC (Pseudomonas aeruginosa [5]) [µM]	MIC (Salmonella typhimurium [6]) [µM]	MIC (Escherichia coli [7]) [µM]	MIC (Enterococcus faecalis [8]) [µM]	MBC (Staphylococcus aureus [9]) [µM]	MBC (Bacillus cereus [10]) [µM]	MBC (Micrococcus flavus [11]) [µM]	MBC (Listeria monocytogenes [12]) [µM]	MBC (Pseudomonas aeruginosa [13]) [µM]	MBC (Salmonella typhimurium [14]) [µM]	MBC (Escherichia coli [15]) [µM]	MBC (Enterococcus faecalis [16]) [µM]	MIC (Aspergillus ochraceus [17]) [µM]	MIC (Aspergillus versicolor [18]) [µM]	MIC (Aspergillus niger [19]) [µM]	MIC (Aspergillus fumigatus [20]) [µM]	other results
CNc1nc(C)c(C(=O)/C=C/c2ccc(OC)cc2)s1	290 (≈ 83.8 µg/mL)	290 (≈ 83.8 µg/mL)	85.4 (≈ 24.6 µg/mL)	342 (≈ 98.6 µg/mL)	342 (≈ 98.6 µg/mL)	342 (≈ 98.6 µg/mL)	342 (≈ 98.6 µg/mL)	171 (≈ 49.3 µg/mL)	342 (≈ 98.6 µg/mL)	342 (≈ 98.6 µg/mL)	171 (≈ 49.3 µg/mL)	513 (≈ 148 µg/mL)	513 (≈ 148 µg/mL)	513 (≈ 148 µg/mL)	513 (≈ 148 µg/mL)	171 (≈ 49.3 µg/mL)	340 (≈ 98 µg/mL)	170 (≈ 49 µg/mL)	340 (≈ 98 µg/mL)	170 (≈ 49 µg/mL)	MIC (Trichoderma viride [21]): 170 µM (≈ 49 µg/mL); MIC (Penicillium ochrochloron [22]): 340 µM (≈ 98 µg/mL); MIC (Talaromyces funiculosus [23]): 340 µM (≈ 98 µg/mL); MIC (10'-2 umol/ml) [24]: 34; MFC (Aspergillus ochraceus [25]): 513 µM (≈ 148 µg/mL); MFC (Aspergillus versicolor [26]): 513 µM (≈ 148 µg/mL); MFC (Aspergillus niger [27]): 683 µM (≈ 197 µg/mL); MFC (Aspergillus fumigatus [28]): 513 µM (≈ 148 µg/mL); MFC (Trichoderma viride [29]): 513 µM (≈ 148 µg/mL); MFC (Penicillium ochrochloron [30]): 513 µM (≈ 148 µg/mL); MFC (Talaromyces funiculosus [31]): 513 µM (≈ 148 µg/mL); MFC [32]: 513 µM (≈ 148 µg/mL); Ratio (Micrococcus flavus [33]): 3
CNc1nc(C)c(C(=O)/C=C/c2ccccc2OC)s1	347 (≈ 100 µg/mL)	347 (≈ 100 µg/mL)	260 (≈ 75.1 µg/mL)	347 (≈ 100 µg/mL)	295 (≈ 85.1 µg/mL)	347 (≈ 100 µg/mL)	260 (≈ 75.1 µg/mL)	260 (≈ 75.1 µg/mL)	347 (≈ 100 µg/mL)	347 (≈ 100 µg/mL)	295 (≈ 85.1 µg/mL)	521 (≈ 150 µg/mL)	347 (≈ 100 µg/mL)	521 (≈ 150 µg/mL)	347 (≈ 100 µg/mL)	347 (≈ 100 µg/mL)	170 (≈ 49 µg/mL)	340 (≈ 98 µg/mL)	340 (≈ 98 µg/mL)	340 (≈ 98 µg/mL)	MIC (Trichoderma viride [21]): 170 µM (≈ 49 µg/mL); MIC (Penicillium ochrochloron [22]): 340 µM (≈ 98 µg/mL); MIC (Talaromyces funiculosus [23]): 340 µM (≈ 98 µg/mL); MIC (10'-2 umol/ml) [24]: 17; MFC (Aspergillus ochraceus [25]): 340 µM (≈ 98 µg/mL); MFC (Aspergillus versicolor [26]): 520 µM (≈ 150 µg/mL); MFC (Aspergillus niger [27]): 870 µM (≈ 251 µg/mL); MFC (Aspergillus fumigatus [28]): 520 µM (≈ 150 µg/mL); MFC (Trichoderma viride [29]): 340 µM (≈ 98 µg/mL); MFC (Penicillium ochrochloron [30]): 520 µM (≈ 150 µg/mL); MFC (Talaromyces funiculosus [31]): 690 µM (≈ 199 µg/mL); MFC [32]: 340 µM (≈ 98 µg/mL)
CNc1nc(C)c(C(=O)/C=C/c2c(Cl)cccc2Cl)s1	306 (≈ 100 µg/mL)	260 (≈ 85 µg/mL)	229 (≈ 75 µg/mL)	306 (≈ 100 µg/mL)	229 (≈ 75 µg/mL)	306 (≈ 100 µg/mL)	229 (≈ 75 µg/mL)	153 (≈ 50 µg/mL)	459 (≈ 150 µg/mL)	306 (≈ 100 µg/mL)	306 (≈ 100 µg/mL)	459 (≈ 150 µg/mL)	306 (≈ 100 µg/mL)	306 (≈ 100 µg/mL)	306 (≈ 100 µg/mL)	306 (≈ 100 µg/mL)	459 (≈ 150 µg/mL)	306 (≈ 100 µg/mL)	306 (≈ 100 µg/mL)	306 (≈ 100 µg/mL)	MIC (Trichoderma viride [21]): 153 µM (≈ 50 µg/mL); MIC (Penicillium ochrochloron [22]): 153 µM (≈ 50 µg/mL); MIC (Talaromyces funiculosus [23]): 306 µM (≈ 100 µg/mL); MIC (10'-2 umol/ml) [24]: 15.3; MFC (Aspergillus ochraceus [25]): 612 µM (≈ 200 µg/mL); MFC (Aspergillus versicolor [26]): 459 µM (≈ 150 µg/mL); MFC (Aspergillus niger [27]): 612 µM (≈ 200 µg/mL); MFC (Aspergillus fumigatus [28]): 306 µM (≈ 100 µg/mL); MFC (Trichoderma viride [29]): 306 µM (≈ 100 µg/mL); MFC (Penicillium ochrochloron [30]): 459 µM (≈ 150 µg/mL); MFC (Talaromyces funiculosus [31]): 459 µM (≈ 150 µg/mL); MFC [32]: 459 µM (≈ 150 µg/mL)
